Assay results published in patent US20110293745A1, “AURORA KINASE INHIBITORS” (SUNESIS PHARMACEUTICALS, INC., priority 2008, published 2011).
Read-outs that look alike come from different tables or passages of the source.

Assays:
[1] = Experimental: The solvents were chosen based on differences in polarity and functionality and on their classification according to the International Conference on Harmonization (ICH), with preference given to class II and class III solvents. After each addition of solvent, the vials were visually inspected to assess dissolution and further heated to 55° C. to ensure dissolution.
[2] = Reslurry of Form A in 20 solvents; assay type: physicochemical; details: THF, EtOAc, MeCN, acetone, MEK, IPA, dioxane, MTBE, IPAc, heptane, CH2Cl2, toluene; room temperature, two weeks
Experimental: Various amounts of solvents were added to each vial to form slurries which were allowed to stir at room temperature for two weeks. The slurries were then filtered with the help of a gentle nitrogen flow. The samples were further dried in vacuo at room temperature for two hours, except the sample from formamide which was dried in vacuo for about 20 hours.
After two weeks, the samples were filtered and then analyzed by XRPD, DSC, and TGA. Three new forms were found from the slurry studies. These Forms I, K, and L were generated from AcOH, NMP, and DMF, respectively. The slurry samples from other solvents afforded results consistent with the single solvent recrystallizations. […] Forms D, E, G, and H were generated from reslurry experiments in DMA, formamide, methanol, and ethanol, respectively.

[3] = Humidity-controlled form conversion; assay type: physicochemical
Experimental: The samples were monitored each week for a total duration of five weeks. Each sample was tested by XRPD, DSC, TGA, and Karl Fisher analysis.

HCT 116 p53+/+ = assay: In vitro combination, HCS cell count assay (CI50); assay type: cell-based, human; details: HCT 116 p53+/+ and p53−/−; dependent on ratios or p53 status
Experimental: A combination index compares the concentration of compounds dosed in combination required for a given fractional effect to the concentration of single agent compound required to give the same fractional affect. In this application, the fractional effect is EC50.
The equation above represents the theoretical additive response for two mutually exclusive drugs, and takes into consideration the ratio at which the two compounds are dosed. […].
[…]. High content cell imaging and a cell proliferation assay were used to measure the anti-proliferative effects of the compounds.
HCT 116 cells transfected with p53 RNAi or a control vector were cultured in DMEM, 10% FBS, and 1× antibiotic/antimycotic. Cells were plated in growth medium in black/clear Falcon® 384-well plates. Cells were treated to assess the effects of p53 status, drug dose ratios, and dose schedules. […]. […] All procedures were performed by a Tecan robotic platform.
After overnight growth, cells were treated with compound for a total of 72 hours and incubated at 37° C., 5% CO2. Cells were fixed in 4% formaldehyde and stained with 1:4000 dilution of 10 mg/mL Hoechst 33342. HCS images were captured and data analyzed using the Target Activation application, object count per field parameter, on the ArrayScan VTI instrument (Cellomics, Inc.).

[4] = tested on: HCT 116 p53−/− (p53 RNAi); assay: In vitro combination, HCS cell count assay (CI50); assay type: cell-based, human; details: p53−/− HCT 116 cells; high doses of vincristine
Experimental: Cells were plated in growth medium in black/clear Falcon® 384-well plates. Cells were treated to assess the effects of p53 status, drug dose ratios, and dose schedules. […] All procedures were performed by a Tecan robotic platform.

[5] = Dynamic Vapor Sorption (DVS); assay type: physicochemical; details: for DVS Result (hygroscopicity): Dynamic Vapor Sorption of crystalline form of Compound 1
Experimental: DVS experiments were carried out on all available forms by first drying the sample at 0% RH and 25° C. until an equilibrium weight was reached or a maximum of four hours. The sample was then subjected to an isothermal (25° C.) adsorption scan from 10 to 90% RH in steps of 10% RH. The sample was allowed to equilibrate to an asymptotic weight at each point for a maximum of four hours. Following adsorption, a desorption scan from […] to 0% RH (at 25° C.) was run in steps of −10% RH again allowing a maximum of four hours for equilibration to an asymptotic weight. The sample was then dried for two hours at 80° C. and the resulting solid analyzed by XRPD.

CS(=O)(=O)O.O=C(Nc1cccc(Cl)c1)Nc1ncc(CCNc2ncnc3ccsc23)s1 [Form A]
Approximate Solubility Conc. ([1]; Solvent AcOH, Temp RT): >17000 µg/mL | Soluble ([1]; Solvent AcOH, Temp RT): Yes | Approximate Solubility Conc. ([1]; Solvent Acetone, Temp 55): <370 µg/mL | Soluble ([1]; Solvent Acetone, Temp 55): No | Approximate Solubility Conc. ([1]; Solvent DCM, Temp 55): <430 µg/mL | Soluble ([1]; Solvent DCM, Temp 55): No | Approximate Solubility Conc. ([1]; Solvent DMA, Temp RT): >28000 µg/mL | Soluble ([1]; Solvent DMA, Temp RT): Yes | Approximate Solubility Conc. ([1]; Solvent DMF, Temp RT): >9000 µg/mL | Soluble ([1]; Solvent DMF, Temp RT): Yes | Approximate Solubility Conc. ([1]; Solvent Dioxane, Temp 55): <280 µg/mL | Soluble ([1]; Solvent Dioxane, Temp 55): No | Approximate Solubility Conc. ([1]; Solvent EtOAc, Temp 55): <250 µg/mL | Soluble ([1]; Solvent EtOAc, Temp 55): No | Approximate Solubility Conc. ([1]; Solvent EtOH, Temp 55): ~630 µg/mL | Soluble ([1]; Solvent EtOH, Temp 55): Yes | Approximate Solubility Conc. ([1]; Solvent Formamide, Temp RT): >16000 µg/mL | Soluble ([1]; Solvent Formamide, Temp RT): Yes | Approximate Solubility Conc. ([1]; Solvent Heptane, Temp 55): <430 µg/mL | Soluble ([1]; Solvent Heptane, Temp 55): No | Approximate Solubility Conc. ([1]; Solvent IPA, Temp 55): <300 µg/mL | Soluble ([1]; Solvent IPA, Temp 55): Partially | Approximate Solubility Conc. ([1]; Solvent IPAc, Temp 55): <400 µg/mL | Soluble ([1]; Solvent IPAc, Temp 55): No | Approximate Solubility Conc. ([1]; Solvent MEK, Temp 55): <480 µg/mL | Soluble ([1]; Solvent MEK, Temp 55): No | Approximate Solubility Conc. ([1]; Solvent MTBE, Temp 55): <200 µg/mL | Soluble ([1]; Solvent MTBE, Temp 55): No | Approximate Solubility Conc. ([1]; Solvent MeCN, Temp 55): <420 µg/mL | Soluble ([1]; Solvent MeCN, Temp 55): No | Approximate Solubility Conc. ([1]; Solvent MeOH, Temp 55): ~700 µg/mL | Soluble ([1]; Solvent MeOH, Temp 55): Yes | Approximate Solubility Conc. ([1]; Solvent NMP, Temp RT): >14000 µg/mL | Soluble ([1]; Solvent NMP, Temp RT): Yes | Approximate Solubility Conc. ([1]; Solvent THF, Temp 55): <320 µg/mL | Soluble ([1]; Solvent THF, Temp 55): No | Approximate Solubility Conc. ([1]; Solvent Toluene, Temp 55): <330 µg/mL | Soluble ([1]; Solvent Toluene, Temp 55): No | Approximate Solubility Conc. ([1]; Solvent Water, Temp 55): <280 µg/mL | Soluble ([1]; Solvent Water, Temp 55): No | solubility ([1]; in DMF, NMP, DMA, formamide, AcOH): soluble | solubility ([1]; in THF, EtOAc, MeCN, acetone, MEK, IPA, water, dioxane, MTBE, IPAc, heptane, CH2Cl2 and toluene): poor solubility | solubility ([1]; in methanol and ethanol): sparingly soluble | form after reslurry [2]: remained unchanged | form conversion under humidity ([3]; 0, 25, 52, and 75% RH, five weeks): No form conversion | form conversion under humidity ([3]; 95% RH, two weeks): converted to Form B

CS(=O)(=O)O.O=C(Nc1cccc(Cl)c1)Nc1ncc(CCNc2ncnc3ccsc23)s1 [A]
KF ([3]; 0% RH, week 1): 0.17 Wt % H2O | TGA Loss ([3]; 0% RH, week 1): 0.0 Wt % | KF ([3]; 0% RH, week 2): <0.1 Wt % H2O | TGA Loss ([3]; 0% RH, week 2): 0.0 Wt % | KF ([3]; 0% RH, week 3): 0.11 Wt % H2O | TGA Loss ([3]; 0% RH, week 3): 0.0 Wt % | KF ([3]; 0% RH, week 4): <0.1 Wt % H2O | TGA Loss ([3]; 0% RH, week 4): 0.0 Wt % | KF ([3]; 0% RH, week 5): 0.1 Wt % H2O | TGA Loss ([3]; 0% RH, week 5): 0.0 Wt % | KF ([3]; 20% RH, week 1): 0.16 Wt % H2O | TGA Loss ([3]; 20% RH, week 1): 0.0 Wt % | KF ([3]; 20% RH, week 2): 0.12 Wt % H2O | TGA Loss ([3]; 20% RH, week 2): 0.0 Wt % | KF ([3]; 20% RH, week 3): 0.11 Wt % H2O | TGA Loss ([3]; 20% RH, week 3): 0.0 Wt % | KF ([3]; 20% RH, week 4): <0.1 Wt % H2O | TGA Loss ([3]; 20% RH, week 4): 0.0 Wt % | KF ([3]; 20% RH, week 5): 0.2 Wt % H2O | TGA Loss ([3]; 20% RH, week 5): 0.0 Wt % | KF ([3]; 52% RH, week 1): 0.29 Wt % H2O | TGA Loss ([3]; 52% RH, week 1): 0.0 Wt % | KF ([3]; 52% RH, week 2): 0.16 Wt % H2O | TGA Loss ([3]; 52% RH, week 2): 0.0 Wt % | KF ([3]; 52% RH, week 3): 0.11 Wt % H2O | TGA Loss ([3]; 52% RH, week 3): 0.0 Wt % | KF ([3]; 75% RH, week 1): 0.12 Wt % H2O | TGA Loss ([3]; 75% RH, week 1): 0.0 Wt % | KF ([3]; 75% RH, week 2): 0.13 Wt % H2O | TGA Loss ([3]; 75% RH, week 2): 0.0 Wt % | KF ([3]; 75% RH, week 3): 0.19 Wt % H2O | TGA Loss ([3]; 75% RH, week 3): 0.0 Wt % | KF ([3]; 75% RH, week 4): <0.1 Wt % H2O | TGA Loss ([3]; 75% RH, week 4): 0.0 Wt % | KF ([3]; 75% RH, week 5): 0.3 Wt % H2O | TGA Loss ([3]; 75% RH, week 5): 0.0 Wt % | KF ([3]; 95% RH, week 1): 1.5 Wt % H2O | TGA Loss ([3]; 95% RH, week 1): 0.1 Wt % | KF ([3]; 95% RH, week 2): 3.2 Wt % H2O | KF ([3]; 95% RH, week 3): 3.7 Wt % H2O | KF ([3]; 95% RH, week 4): 3.5 Wt % H2O | TGA Loss ([3]; 95% RH, week 4): 1.5 Wt % | KF ([3]; 95% RH, week 5): 3.9 Wt % H2O | KF ([3]; starting point, week 0): 0.07 Wt % H2O | TGA Loss ([3]; starting point, week 0): 0.0 Wt %

CC[C@]1(O)C[C@H]2CN(CCc3c([nH]c4ccccc34)[C@@](C(=O)OC)(c3cc4c(cc3OC)N(C=O)[C@H]3[C@@](O)(C(=O)OC)[C@H](OC(C)=O)[C@]5(CC)C=CCN6CC[C@]43[C@@H]65)C2)C1 [vincristine]
interaction with Compound 1 in cell count assay (HCT 116 p53+/+): conditional synergies | interaction with Compound 1, co-dosed [4]: Statistically significant synergy

CC(=O)O[C@@]12CO[C@@H]1C[C@H](O)[C@@]1(C)C(=O)[C@H](O)C3=C(C)[C@@H](OC(=O)[C@H](O)[C@@H](NC(=O)OC(C)(C)C)c4ccccc4)C[C@@](O)([C@@H](OC(=O)c4ccccc4)[C@H]21)C3(C)C [docetaxel]
interaction with Compound 1 in cell count assay (HCT 116 p53+/+): conditional synergies

Nc1ccn([C@@H]2O[C@H](CO)[C@@H](O)C2(F)F)c(=O)n1 [gemcitabine]
interaction with Compound 1 in cell count assay (HCT 116 p53+/+): conditional synergies

CS(=O)(=O)O.O=C(Nc1cccc(Cl)c1)Nc1ncc(CCNc2ncnc3ccsc23)s1 [E]
DVS Result (water uptake) ([5]; at 90% RH): change, 8.0 wt wt %

CS(=O)(=O)O.O=C(Nc1cccc(Cl)c1)Nc1ncc(CCNc2ncnc3ccsc23)s1 [G]
DVS Result (hygroscopicity) [5]: change, low

CS(=O)(=O)O.O=C(Nc1cccc(Cl)c1)Nc1ncc(CCNc2ncnc3ccsc23)s1 [Form B]
form conversion under humidity ([3]; all humidity chambers, five weeks): No form conversion

CS(=O)(=O)O.O=C(Nc1cccc(Cl)c1)Nc1ncc(CCNc2ncnc3ccsc23)s1 [B]
DVS Result (hygroscopicity) [5]: change, low | KF ([3]; 0% RH, week 1): 1.4 Wt % H2O | KF ([3]; 0% RH, week 2): 3.4 Wt % H2O | KF ([3]; 0% RH, week 3): 3.6 Wt % H2O | KF ([3]; 0% RH, week 4): 3.0 Wt % H2O | KF ([3]; 0% RH, week 5): 3.4 Wt % H2O | KF ([3]; 20% RH, week 1): 3.3 Wt % H2O | KF ([3]; 20% RH, week 2): 3.7 Wt % H2O | KF ([3]; 20% RH, week 3): 3.6 Wt % H2O | KF ([3]; 20% RH, week 4): 3.4 Wt % H2O | KF ([3]; 20% RH, week 5): 3.5 Wt % H2O | KF ([3]; 52% RH, week 1): 3.0 Wt % H2O | KF ([3]; 52% RH, week 2): 3.6 Wt % H2O | KF ([3]; 52% RH, week 3): 3.7 Wt % H2O | KF ([3]; 52% RH, week 4): 3.3 Wt % H2O | KF ([3]; 52% RH, week 5): 3.6 Wt % H2O | KF ([3]; 75% RH, week 1): 3.4 Wt % H2O | KF ([3]; 75% RH, week 2): 3.4 Wt % H2O | KF ([3]; 75% RH, week 3): 2.4 Wt % H2O | KF ([3]; 75% RH, week 4): 3.3 Wt % H2O | KF ([3]; 95% RH, week 1): 3.2 Wt % H2O | KF ([3]; 95% RH, week 2): 3.5 Wt % H2O | KF ([3]; 95% RH, week 3): 4.6 Wt % H2O | TGA Loss ([3]; 95% RH, week 3): 3.2 Wt % | KF ([3]; 95% RH, week 4): 3.7 Wt % H2O | KF ([3]; 95% RH, week 5): 4.7 Wt % H2O | KF ([3]; starting point, week 0): 3.0 Wt % H2O
